Values after ≈ are worked out from the molar mass of the structure shown.
Key:
[1] = Toxicity in Wistar-Han rat assessed as body weight loss at 750 mg/kg, po administered once daily for 7 days; type: organism-based; details: in vivo, 168 h, time 7 day
Nav1.5 = Nav1.5 (Homo sapiens, UniProt Q14524); experiment: Inhibition of human Nav1.5 expressed in HEK293 cells at 30 uM by QPatch voltage clamp assay relative to control; type: cell-based; details: HEK293 cells expressing human Nav1.5
rat Mdr1a P-gp = experiment: Apparent permeability across apical to basolateral side in LLC-PK1 cells transfected with rat Mdr1a P-gp incubated for 3 hrs by LC-MS/MS analysis; details: pig
[2] = Unbound brain-to-plasma concentration ratio in iv dosed Wistar-Han rat administered as cassette dose by LC-MS/MS analysis; type: ADME, organism-based; details: read-out: K(p,uu,brain)
[3] = Intrinsic clearance in Wistar-Han rat at 3 mg/kg, iv measured after 24 hrs by LC-MS/MS analysis; type: ADME, organism-based; details: in vivo
[4] = MRT in Wistar-Han rat at 3 mg/kg, iv measured after 24 hrs by LC-MS/MS analysis; type: ADME, organism-based; details: in vivo
[5] = MRT in Beagle dog at 0.5 mg/kg, iv measured after 24 hrs by LC-MS/MS analysis; type: ADME, organism-based, Canis lupus familiaris; details: in vivo
[6] = Oral bioavailability in rhesus monkey at 10 mg/kg measured after 24 hrs by LC-MS/MS analysis; type: ADME, organism-based, Macaca mulatta; details: in vivo
[7] = Protein binding in rat plasma incubated for 4 hrs by equilibrium dialysis method; type: ADME, cell-free; details: read-out: PPB (converted)
[8] = Protein binding in dog plasma incubated for 4 hrs by equilibrium dialysis method; type: ADME, cell-free, Canis lupus familiaris; details: read-out: PPB (converted)
[9] = Protein binding in rhesus monkey plasma incubated for 4 hrs by equilibrium dialysis method; type: ADME, cell-free, Macaca mulatta; details: read-out: PPB (converted)
[10] = Kinetic solubility of compound in PBS at pH 7 measured after 24 hrs by UPLC/DAD analysis; type: physicochemical; details: read-out: Kinetic_solubility
[11] = Kinetic solubility of compound in FaSSIF at pH 6.5 measured after 24 hrs by UPLC/DAD analysis; type: physicochemical; details: read-out: Kinetic_solubility
[12] = Mutagenicity in Salmonella typhimurium TA1535 at 30 to 5000 ug/plate incubated for 48 hrs in absence of Wistar-Han rat S9 fraction by Ames test; type: toxicity; details: salmonella enterica subsp. enterica serovar typhimurium, s9, 48 h
[13] = Mutagenicity in Salmonella typhimurium TA100 at 30 to 5000 ug/plate incubated for 48 hrs in absence of Wistar-Han rat S9 fraction by Ames test; type: toxicity; details: salmonella enterica subsp. enterica serovar typhimurium, s9, 48 h
[14] = Mutagenicity in Salmonella typhimurium TA98 at 30 to 5000 ug/plate incubated for 48 hrs in presence of Wistar-Han rat S9 fraction by Ames test; type: toxicity, subcellular; details: salmonella enterica subsp. enterica serovar typhimurium, s9, 48 h
[15] = target: KCNQ1/KCNE1 (IKs, Kv7.1/MinK) (Homo sapiens, UniProt P15382+P51787); experiment: Inhibition of human KCNQ1/KCNE1 expressed in HEK293 cells at 30 uM by QPatch voltage clamp assay relative to control; type: cell-based; details: HEK293 cells expressing human KCNQ1/KCNE1
Chain of KCNQ1/KCNE1 (IKs, Kv7.1/MinK) (P51787 whole entry): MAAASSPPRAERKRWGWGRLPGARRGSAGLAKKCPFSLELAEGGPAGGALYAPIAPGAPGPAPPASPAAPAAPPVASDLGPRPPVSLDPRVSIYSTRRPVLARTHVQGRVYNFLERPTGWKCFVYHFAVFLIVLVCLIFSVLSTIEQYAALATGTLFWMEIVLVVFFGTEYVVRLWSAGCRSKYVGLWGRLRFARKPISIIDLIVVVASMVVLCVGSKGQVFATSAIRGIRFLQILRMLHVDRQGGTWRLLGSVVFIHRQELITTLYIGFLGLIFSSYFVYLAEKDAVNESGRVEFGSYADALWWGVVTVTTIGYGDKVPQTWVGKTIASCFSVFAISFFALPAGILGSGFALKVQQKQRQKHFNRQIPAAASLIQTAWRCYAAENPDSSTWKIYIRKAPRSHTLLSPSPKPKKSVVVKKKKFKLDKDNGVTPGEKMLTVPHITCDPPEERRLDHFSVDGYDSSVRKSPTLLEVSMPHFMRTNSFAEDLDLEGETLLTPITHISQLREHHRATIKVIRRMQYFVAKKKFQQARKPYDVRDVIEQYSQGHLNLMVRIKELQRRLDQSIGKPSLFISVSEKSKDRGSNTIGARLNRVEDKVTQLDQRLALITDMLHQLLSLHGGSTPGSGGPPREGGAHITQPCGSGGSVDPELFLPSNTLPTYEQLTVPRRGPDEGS

hERG (KCNH2) = hERG (KCNH2) (Homo sapiens, UniProt Q12809); experiment: Inhibition of hERG expressed in CHO cells at 30 uM by QPatch voltage clamp assay relative to control; type: toxicity, cell-based; details: CHO cells expressing hERG
Nav1.5 (SCN5A) = Nav1.5 (SCN5A) (Homo sapiens, UniProt Q14524); experiment: Inhibition of human Nav1.5 expressed in HEK293 cells at 10 uM by QPatch voltage clamp assay relative to control; type: cell-based; details: HEK293 cells expressing human Nav1.5
Chain of Nav1.5 (SCN5A) (Q14524 whole entry): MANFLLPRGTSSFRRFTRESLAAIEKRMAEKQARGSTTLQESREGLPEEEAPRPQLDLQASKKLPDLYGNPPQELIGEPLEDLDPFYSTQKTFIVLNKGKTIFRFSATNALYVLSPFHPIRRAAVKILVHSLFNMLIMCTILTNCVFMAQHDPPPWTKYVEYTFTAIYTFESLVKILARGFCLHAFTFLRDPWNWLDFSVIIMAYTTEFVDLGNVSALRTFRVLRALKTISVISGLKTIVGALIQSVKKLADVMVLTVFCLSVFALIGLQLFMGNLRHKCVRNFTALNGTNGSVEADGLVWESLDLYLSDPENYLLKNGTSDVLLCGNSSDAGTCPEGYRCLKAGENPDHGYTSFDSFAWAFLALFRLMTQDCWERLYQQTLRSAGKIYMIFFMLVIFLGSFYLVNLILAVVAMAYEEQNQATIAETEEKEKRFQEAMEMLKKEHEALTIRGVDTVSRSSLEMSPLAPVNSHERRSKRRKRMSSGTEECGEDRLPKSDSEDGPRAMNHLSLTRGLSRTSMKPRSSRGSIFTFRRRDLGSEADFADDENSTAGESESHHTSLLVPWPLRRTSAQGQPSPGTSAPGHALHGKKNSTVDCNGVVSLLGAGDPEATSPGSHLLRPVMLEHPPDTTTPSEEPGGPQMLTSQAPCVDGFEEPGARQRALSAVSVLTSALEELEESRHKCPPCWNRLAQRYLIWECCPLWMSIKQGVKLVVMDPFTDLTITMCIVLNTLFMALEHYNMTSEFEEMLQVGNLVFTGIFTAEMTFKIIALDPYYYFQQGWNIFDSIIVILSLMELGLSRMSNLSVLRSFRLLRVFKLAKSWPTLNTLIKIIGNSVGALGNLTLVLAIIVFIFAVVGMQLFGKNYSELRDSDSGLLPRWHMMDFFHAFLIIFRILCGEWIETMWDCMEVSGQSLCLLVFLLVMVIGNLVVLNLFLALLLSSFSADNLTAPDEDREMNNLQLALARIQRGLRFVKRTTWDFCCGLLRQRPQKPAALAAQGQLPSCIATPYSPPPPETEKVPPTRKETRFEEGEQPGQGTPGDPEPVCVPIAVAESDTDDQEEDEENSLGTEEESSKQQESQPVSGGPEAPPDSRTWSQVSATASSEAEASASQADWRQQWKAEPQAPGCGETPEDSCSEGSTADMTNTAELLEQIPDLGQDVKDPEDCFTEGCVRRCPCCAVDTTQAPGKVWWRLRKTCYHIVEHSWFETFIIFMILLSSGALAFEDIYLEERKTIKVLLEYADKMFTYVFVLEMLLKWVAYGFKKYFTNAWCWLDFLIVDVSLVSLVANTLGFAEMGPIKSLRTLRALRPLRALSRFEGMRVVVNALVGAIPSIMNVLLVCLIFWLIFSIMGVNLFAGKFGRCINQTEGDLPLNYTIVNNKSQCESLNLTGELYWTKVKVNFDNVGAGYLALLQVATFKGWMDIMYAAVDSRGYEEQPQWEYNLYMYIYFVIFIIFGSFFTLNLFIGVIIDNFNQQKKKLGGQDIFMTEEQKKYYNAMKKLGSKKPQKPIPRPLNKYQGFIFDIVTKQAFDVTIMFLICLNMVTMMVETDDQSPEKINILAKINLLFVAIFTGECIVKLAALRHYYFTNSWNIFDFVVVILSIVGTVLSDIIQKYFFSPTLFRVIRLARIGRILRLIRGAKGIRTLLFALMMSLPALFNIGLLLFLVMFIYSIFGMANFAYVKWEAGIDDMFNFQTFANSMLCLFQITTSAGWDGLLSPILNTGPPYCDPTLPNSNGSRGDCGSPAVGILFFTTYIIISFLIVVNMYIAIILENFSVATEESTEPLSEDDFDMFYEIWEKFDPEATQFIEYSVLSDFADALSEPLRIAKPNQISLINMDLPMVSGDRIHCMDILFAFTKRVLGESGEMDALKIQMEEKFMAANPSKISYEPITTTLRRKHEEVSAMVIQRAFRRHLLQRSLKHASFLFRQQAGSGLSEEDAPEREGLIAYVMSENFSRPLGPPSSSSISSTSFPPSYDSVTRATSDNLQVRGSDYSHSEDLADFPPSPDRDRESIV

[16] = Unbound drug concentration in guinea pig plasma at 5 mg/kg, iv administered continuously for 20 mins; type: ADME, organism-based, Cavia porcellus; details: in vivo
[17] = Unbound drug concentration in guinea pig plasma at 15 mg/kg, iv administered continuously for 20 mins; type: ADME, organism-based, Cavia porcellus; details: in vivo
[18] = Unbound drug concentration in guinea pig plasma at 20 mg/kg, iv administered continuously for 20 mins; type: ADME, organism-based, Cavia porcellus; details: in vivo
Rattus norvegicus = experiment: In vivo inhibition of LRRK2 in po dosed Wistar-Han rat assessed as reduction in Ser935 phosphorylation in stratium measured after 2 hrs; type: functional, organism-based; details: dose 1-100 mg/kg
PBMC = experiment: Inhibition of LRRK2 in rat PBMC assessed as Ser935 dephosphorylation; type: cell-based
[19] = Cmax in Wistar-Han rat at 48 mg administered twice a day by LC-MS/MS analysis; type: ADME; set-up: dose 48 mg; details: in vivo
[20] = Toxicity in Wistar-Han rat assessed as effect on systolic blood pressure at 60 mg/kg, po administered as single dose and measured upto 24 hrs by telemetric analysis; type: organism-based; details: in vivo
[21] = Toxicity in Wistar-Han rat assessed as effect on mean blood pressure at 60 mg/kg, po administered as single dose and measured upto 24 hrs by telemetric analysis; type: organism-based; details: in vivo
[22] = Toxicity in Wistar-Han rat assessed as effect on heart rate at 225 mg/kg, po administered as single dose and measured after 5 to 8 hrs by telemetric analysis; type: organism-based; details: in vivo, time 5-8 hrs
[23] = Toxicity in Wistar-Han rat assessed as effect on arterial pulse pressure at 225 mg/kg, po administered as single dose and measured upto 24 hrs by telemetric analysis; type: organism-based; details: in vivo
[24] = AUC in Wistar-Han rat at 40 mg/kg, po administered once daily for 7 days; type: ADME, organism-based; set-up: dose 40 mg/kg, time 7 day, route po; details: in vivo
[25] = AUC in Wistar-Han rat at 750 mg/kg, po administered once daily for 7 days; type: ADME, organism-based; set-up: dose 750 mg/kg, time 7 day, route po; details: in vivo
[26] = Toxicity in Wistar-Han rat assessed as clinical observations at 750 mg/kg, po administered once daily for 7 days; type: organism-based; details: in vivo, 168 h, time 7 day
[27] = Toxicity in Wistar-Han rat assessed as squamous hyperplasia of nonglandular stomach at 750 mg/kg, po administered once daily for 7 days; type: organism-based; details: in vivo, 168 h, time 7 day
[28] = AUCtau in Wistar-Han rat at 48 mg administered twice a day by LC-MS/MS analysis; type: ADME; set-up: dose 48 mg; details: in vivo
[29] = Toxicity in Wistar-Han rat assessed as micronucleus induction in bone marrow at 40 to 750 mg/kg, po administered once daily for 7 days by micronucleus test; type: organism-based; details: in vivo, 168 h, dose 40-750 mg/kg, time 7 day
[30] = Toxicity in rhesus monkey assessed as tolerance at 100 to 800 mg/kg, po administered once daily for 7 days; type: organism-based, Macaca mulatta; details: in vivo, 168 h, dose 100-800 mg/kg, time 7 day
[31] = AUC in rhesus monkey at 100 mg/kg, po administered once daily for 7 days; type: ADME, organism-based, Macaca mulatta; set-up: dose 100 mg/kg, time 7 day, route po; details: in vivo
[32] = AUC in rhesus monkey at 200 mg/kg, po administered once daily for 7 days; type: ADME, organism-based, Macaca mulatta; set-up: dose 200 mg/kg, time 7 day, route po; details: in vivo
[33] = Toxicity in rhesus monkey assessed as body weight loss at 100 to 800 mg/kg, po administered once daily for 7 days; type: organism-based, Macaca mulatta; details: in vivo, 168 h, dose 100-800 mg/kg, time 7 day
[34] = Toxicity in rhesus monkey assessed as lung type II pneumocyte hypertrophy at 200 to 800 mg/kg, po administered once daily for 7 days; type: organism-based, Macaca mulatta; details: in vivo, 168 h, dose 200-800 mg/kg, time 7 day
[35] = In vivo inhibition of LRRK2 in rhesus monkey assessed as reduction in Ser935 phosphorylation in brain at 100 to 800 mg/kg, po administered once daily for 7 days; type: functional, Macaca mulatta; details: dose 100-800 mg/kg, time 7 day

Chain of Nav1.5 (Q14524 whole entry): as above

Papp A→B at 3 h (rat Mdr1a P-gp): 30 ×10⁻⁶ cm/s
Kp uu [2]: 0.3
CL [3]: 1435 mL/min/kg
MRT [4]: 2.2 h
MRT [5]: 29 h
bioavailability [6]: 9%
fraction unbound at 4 h [7]: 0.115
fraction unbound at 4 h [8]: 0.13
fraction unbound at 4 h [9]: 0.12
solubility kinetic at 24 h [10]: < 3 µM
solubility kinetic at 24 h [11]: 6 µM (≈ 3.01 µg/mL)
inhibition at 30 µM [15]: 18%
Cp(f) [16]: 1290 nM
Cp(f) [17]: 5690 nM
Cp(f) [18]: 11900 nM
Cmax [19]: 750 nM
AUC at 168 h [24]: 8.1 µM·h
AUC at 168 h [25]: 395 µM·h
AUC [28]: 3 µM·h
AUC at 168 h [31]: 14 µM·h
AUC at 168 h [32]: 25 µM·h
Compound: C[C@@]1(N2CCN(c3cc4cc(NC(=O)[C@H]5CC56CCOCC6)ncc4cc3Cl)CC2)COC[C@@H]1O
Activity [1]: Toxic
inhibition at 30 µM (Nav1.5): 34%
Activity [12]: Non-Toxic
Activity [13]: Non-Toxic
Activity [14]: Non-Toxic
inhibition at 30 µM (hERG (KCNH2)): 39%
inhibition at 10 µM (Nav1.5 (SCN5A)): 23%
inhibition (Rattus norvegicus): Dose-Dependent Effect
fIC50 (PBMC): 25 nM
Activity [20]: Non-Toxic
Activity [21]: Non-Toxic
Activity [22]: Toxic
Activity [23]: Non-Toxic
Activity [26]: Non-Toxic
Activity [27]: Toxic
Activity [29]: Non-Toxic
Activity [30]: Non-Toxic
Activity [33]: Non-Toxic
Activity [34]: Toxic
fIC50 [35]: 7 nM

Source: ChEMBL document CHEMBL5370643, “Discovery of MK-1468: A Potent, Kinome-Selective, Brain-Penetrant Amidoisoquinoline LRRK2 Inhibitor for the Potential Treatment of Parkinson's Disease” (J Med Chem, 2023)
